Data from PMC10141580, “Cyclic Dichalcogenides Extend the Reach of Bioreductive Prodrugs to Harness Thiol/Disulfide Oxidoreductases: Applications to seco-Duocarmycins Targeting the Thioredoxin System” (ACS Central Science, 2023).
Where two headings read alike, the source gives them in different places.

Test system: panel of 140 standard cancer cell lines
Test: ProliFiler-140 cancer cell line screen (CellTiterGlo, 72 h)
Format: cell-based
Protocol: Incubations were performed for 72 h before automated viability readout with CellTiterGlo (Figure 8).
End of Figure S11 (part 5 of 5): ProliFiler-140 cancer cell line screening for cytotoxicity of the prodrugs.
8-data-point dose response curves from CellTiter-Glo® viability readout.
ProliFiler-140 cell line panel part V

For `COc1cc2cc(C(=O)N3C[C@@H](CCl)c4c3cc(OC(=O)N3CCN(C(=O)CCC(=O)N5CCN(C)CC5)[C@H]5CSSC[C@H]53)c3ccccc43)[nH]c2c(OC)c1OC` [P-SS66C-CBI-TMI], the IC50 (read-out: IC50 [M] (ProliFiler-140), BxPC-3 (Pancreas)) was 4.6e-08 M, the IC50 (read-out: IC50 [M] (ProliFiler-140), COR-L279 (Lung)) was 7.23e-09 M and the IC50 (read-out: IC50 [M] (ProliFiler-140), COV434 (Ovary)) was 1.48e-08 M. For the same compound, the IC50 (read-out: IC50 [M] (ProliFiler-140), Calu-6 (Lung)) was 5.9e-08 M, the IC50 (read-out: IC50 [M] (ProliFiler-140), Colo 205 (Colon)) was 8.61e-08 M and the IC50 (read-out: IC50 [M] (ProliFiler-140), DU-145 (Prostate)) was 1.62e-08 M. The IC50 (read-out: IC50 [M] (ProliFiler-140), EFM-19 (Breast)) was 3.12e-07 M, the IC50 (read-out: IC50 [M] (ProliFiler-140), EFO-27 (Ovary)) was 6.19e-08 M and the IC50 (read-out: IC50 [M] (ProliFiler-140), EPLC-272H (Lung)) was 4.6e-08 M. It also gave an IC50 (read-out: IC50 [M] (ProliFiler-140), H460 (Lung)) of 5.51e-09 M, an IC50 (read-out: IC50 [M] (ProliFiler-140), H1299 (Lung)) of 5.4e-08 M and an IC50 (read-out: IC50 [M] (ProliFiler-140), H2228 (Lung)) of 4.5e-08 M. The IC50 (read-out: IC50 [M] (ProliFiler-140), HCC202 (Breast)) was 9.13e-08 M, the IC50 (read-out: IC50 [M] (ProliFiler-140), HCC827 (Lung)) was 9.11e-08 M and the IC50 (read-out: IC50 [M] (ProliFiler-140), HEC-1-B (Endometrium)) was 3.99e-07 M. For the same compound, the IC50 (read-out: IC50 [M] (ProliFiler-140), HL-60 (Blood)) was 1.52e-08 M, the IC50 (read-out: IC50 [M] (ProliFiler-140), HT-29 (Colon)) was 1.05e-07 M and the IC50 (read-out: IC50 [M] (ProliFiler-140), HT-1080 (Fibrosarcoma)) was 2.1e-08 M. For the same compound, the IC50 (read-out: IC50 [M] (ProliFiler-140), HeLa (Ovary)) was 9.9e-09 M, the IC50 (read-out: IC50 [M] (ProliFiler-140), Hep3B2.1-7 (Liver)) was 1.72e-07 M and the IC50 (read-out: IC50 [M] (ProliFiler-140), Hs 746T (Stomach)) was 7.52e-08 M. The IC50 (read-out: IC50 [M] (ProliFiler-140), Hutu 80 (Duodenum)) was 9.6e-09 M, the IC50 (read-out: IC50 [M] (ProliFiler-140), Ishikawa (Endometrium)) was 3.84e-09 M and the IC50 (read-out: IC50 [M] (ProliFiler-140), J82 (Bladder)) was 9.6e-08 M. The IC50 (read-out: IC50 [M] (ProliFiler-140), JIMT-1 (Breast)) was 1.04e-07 M, the IC50 (read-out: IC50 [M] (ProliFiler-140), JVM-3 (Blood)) was 3.4e-09 M and the IC50 (read-out: IC50 [M] (ProliFiler-140), Jurkat (Blood)) was 6.2e-09 M. For the same compound, the IC50 (read-out: IC50 [M] (ProliFiler-140), K562 (Blood)) was 1.29e-07 M, the IC50 (read-out: IC50 [M] (ProliFiler-140), KG-1 (Blood)) was 1.9e-07 M and the IC50 (read-out: IC50 [M] (ProliFiler-140), LOU-NH91 (Lung)) was 3.45e-08 M. For the same compound, the IC50 (read-out: IC50 [M] (ProliFiler-140), LP-1 (Blood)) was 1.04e-07 M, the IC50 (read-out: IC50 [M] (ProliFiler-140), LnCap (Prostate)) was 2.75e-08 M and the IC50 (read-out: IC50 [M] (ProliFiler-140), MCF-7 (Breast)) was 3.05e-08 M. For the same compound, the IC50 (read-out: IC50 [M] (ProliFiler-140), MDA-MB-468 (Breast)) was 1.87e-08 M, the IC50 (read-out: IC50 [M] (ProliFiler-140), MEC-1 (Blood)) was 1.08e-08 M and the IC50 (read-out: IC50 [M] (ProliFiler-140), MKN-1 (Stomach)) was 1.38e-07 M. The IC50 (read-out: IC50 [M] (ProliFiler-140), MOLM-13 (Blood)) was 5.25e-09 M, the IC50 (read-out: IC50 [M] (ProliFiler-140), MOLT-4 (Blood)) was 8.62e-09 M and the IC50 (read-out: IC50 [M] (ProliFiler-140), MV4-11 (Blood)) was 1.54e-09 M. The IC50 (read-out: IC50 [M] (ProliFiler-140), NALM-6 (Blood)) was 2.5e-09 M, the IC50 (read-out: IC50 [M] (ProliFiler-140), NCI-H82 (Lung)) was 8.78e-08 M and the IC50 (read-out: IC50 [M] (ProliFiler-140), NCI-H292 (Lung)) was 3.77e-08 M. It also gave an IC50 (read-out: IC50 [M] (ProliFiler-140), NCI-H838 (Lung)) of 7.44e-08 M, an IC50 (read-out: IC50 [M] (ProliFiler-140), NCI-H1048 (Lung)) of 3.97e-09 M and an IC50 (read-out: IC50 [M] (ProliFiler-140), NCI-H1563 (Lung)) of 1.14e-07 M. The IC50 (read-out: IC50 [M] (ProliFiler-140), NCI-H1573 (Lung)) was 8.97e-08 M, the IC50 (read-out: IC50 [M] (ProliFiler-140), NCI-H1581 (Lung)) was 4.7e-08 M and the IC50 (read-out: IC50 [M] (ProliFiler-140), NCI-H1703 (Lung)) was 5.11e-08 M. It also gave an IC50 (read-out: IC50 [M] (ProliFiler-140), NCI-H2110 (Lung)) of 1.81e-08 M, an IC50 (read-out: IC50 [M] (ProliFiler-140), NCI-H2286 (Lung)) of 1.67e-08 M and an IC50 (read-out: IC50 [M] (ProliFiler-140), NCI-N87 (Stomach)) of 7.55e-08 M. For the same compound, the IC50 (read-out: IC50 [M] (ProliFiler-140), OCI-AML3 (Blood)) was 1.32e-08 M, the IC50 (read-out: IC50 [M] (ProliFiler-140), OCI-AML5 (Blood)) was 5.98e-09 M and the IC50 (read-out: IC50 [M] (ProliFiler-140), OCI-LY19 (Blood)) was 2.8e-09 M. It also gave an IC50 (read-out: IC50 [M] (ProliFiler-140), OPM-2 (Blood)) of 2.6e-08 M, an IC50 (read-out: IC50 [M] (ProliFiler-140), OV56 (Ovary)) of 7.2e-08 M and an IC50 (read-out: IC50 [M] (ProliFiler-140), OVCAR-3 (Ovary)) of 7.88e-08 M. The IC50 (read-out: IC50 [M] (ProliFiler-140), OVK18 (Ovary)) was 4.6e-08 M, the IC50 (read-out: IC50 [M] (ProliFiler-140), P31/FUJ (Blood)) was 2.25e-08 M and the IC50 (read-out: IC50 [M] (ProliFiler-140), PC3 (Prostate)) was 4e-08 M. It also gave an IC50 (read-out: IC50 [M] (ProliFiler-140), PC-9 (Lung)) of 1.41e-08 M, an IC50 (read-out: IC50 [M] (ProliFiler-140), RERF-LC-Ad2 (Lung)) of 1.42e-07 M and an IC50 (read-out: IC50 [M] (ProliFiler-140), RKO (Colon)) of 2.1e-08 M. For the same compound, the IC50 (read-out: IC50 [M] (ProliFiler-140), SCH (Stomach)) was 1.52e-08 M, the IC50 (read-out: IC50 [M] (ProliFiler-140), SCLC-21H (Lung)) was 2.6e-08 M and the IC50 (read-out: IC50 [M] (ProliFiler-140), SK-ES-1 (Bone)) was 2.7e-09 M. For the same compound, the IC50 (read-out: IC50 [M] (ProliFiler-140), SK-MEL-3 (Skin)) was 1.55e-07 M, the IC50 (read-out: IC50 [M] (ProliFiler-140), SK-N-MC (Brain)) was 1.61e-09 M and the IC50 (read-out: IC50 [M] (ProliFiler-140), SK-N-SH (Brain)) was 1.15e-07 M. It also gave an IC50 (read-out: IC50 [M] (ProliFiler-140), SK-OV3 (Ovary)) of 3.7e-08 M, an IC50 (read-out: IC50 [M] (ProliFiler-140), SNU-1 (Stomach)) of 2.27e-08 M and an IC50 (read-out: IC50 [M] (ProliFiler-140), SNU-216 (Stomach)) of 9.2e-08 M. For the same compound, the IC50 (read-out: IC50 [M] (ProliFiler-140), SU-DHL-5 (Blood)) was 2.55e-09 M, the IC50 (read-out: IC50 [M] (ProliFiler-140), SW480 (Colon)) was 5.5e-08 M and the IC50 (read-out: IC50 [M] (ProliFiler-140), SW-1783 (Brain)) was 4.8e-08 M. The IC50 (read-out: IC50 [M] (ProliFiler-140), Saos-2 EC (Bone)) was 6.6e-08 M, the IC50 (read-out: IC50 [M] (ProliFiler-140), T98G (Brain)) was 8.1e-08 M and the IC50 (read-out: IC50 [M] (ProliFiler-140), T-47D (Breast)) was 9.75e-08 M. It also gave an IC50 (read-out: IC50 [M] (ProliFiler-140), U118MG (Brain)) of 1.9e-07 M, an IC50 (read-out: IC50 [M] (ProliFiler-140), U251MG (Brain)) of 1.18e-07 M and an IC50 (read-out: IC50 [M] (ProliFiler-140), U-266 (Blood)) of 9.4e-09 M. For the same compound, the IC50 (read-out: antiproliferative IC50 range, range over 140 cell lines) was 1e-09 to 1e-07 M and the Reductive Activation Index (span over ProliFiler-140 cell lines) was “up to 30 fold”.
